In patent publication US12090149B2, “SMAD3 inhibitors” (Moexa Pharmaceuticals Limited, priority 2018, dated 2024):
Where two headings read alike, the source gives them in different places.

Columns and labels:
[1] = Aqueous solubility assay (shake-flask, LC/MS/MS); assay type: physicochemical; conditions: for solubility at 24 h: thermodynamic from solid, 25° C., SIS3 hydrochloride salt, MO-00005 free base, read-out: Conc. Of Sample (ug/mL), aqueous solubility
Experimental: Poorly soluble compounds can dramatically reduce productivity in drug discovery and development. Solubility assays involve assessment of kinetic solubility (from DMSO stock solution) using a shake-flask technique in a plate format and LC/MS/MS analysis.
• Analytical Column: YMC ODS-AM S-3 120A, 3×50 mm column with Guard. • Flow Rate: 500 ul/min • Mobil Phase: Isocratic 50% acetonitrile: 50% 20 mM Ammonium Acetate pH 4. Back Pressure: 1400 psi • Column Temperature: Ambient, • Autosampler Setting: Injection Volume: 5 ul, Loop Volume: 100 ul, Tray Temperature: 4° C. • Needle wash: Vial position 100. Needle wash solution: 50% Methanol water
• Component Mass Molarity • Sodium bicarbonate (mw: 84 g/mol) 0.11628 g 0.0461 M • Sodium carbonate (anhydrous) (mw: 106 g/mol) 0.17127 g 0.0539 M • Tris Buffer pH 7.7 (100 mL) • Add 0.363 g of tris to 30 mL water. Check pH at room temperature the pH should be 7.7 with acetic acid. • Acetate Buffer pH 3.6 (30 mL) • Component Mass Molarity • Sodium Acetate (anhydrous) (mw: 82 g/mol) 0.01188 g 0.0048 M • Acetic Acid (mw: 60.05 g/mol) 0.17145 g 0.0952 M (0.17145 g=[…])
Then run all samples at this dilution. • (xi) Run samples in duplicate and estimate aqueous solubility.
As such, it may be expected that the hydrochloride salt will have better solubility in unbuffered aqueous solutions. There the thermodynamic equilibrium dissolution concentrations of both compounds were determined also in buffered solutions at pH 4, 7.7, and 10.4 in addition to unbuffered water.

CYP3A4 = CYP3A4 (Homo sapiens, UniProt P08684); test: Cytochrome P450 inhibition assay, human liver microsomes, CYP3A4; conditions: human
CYP3A4, sequence (P08684 whole entry): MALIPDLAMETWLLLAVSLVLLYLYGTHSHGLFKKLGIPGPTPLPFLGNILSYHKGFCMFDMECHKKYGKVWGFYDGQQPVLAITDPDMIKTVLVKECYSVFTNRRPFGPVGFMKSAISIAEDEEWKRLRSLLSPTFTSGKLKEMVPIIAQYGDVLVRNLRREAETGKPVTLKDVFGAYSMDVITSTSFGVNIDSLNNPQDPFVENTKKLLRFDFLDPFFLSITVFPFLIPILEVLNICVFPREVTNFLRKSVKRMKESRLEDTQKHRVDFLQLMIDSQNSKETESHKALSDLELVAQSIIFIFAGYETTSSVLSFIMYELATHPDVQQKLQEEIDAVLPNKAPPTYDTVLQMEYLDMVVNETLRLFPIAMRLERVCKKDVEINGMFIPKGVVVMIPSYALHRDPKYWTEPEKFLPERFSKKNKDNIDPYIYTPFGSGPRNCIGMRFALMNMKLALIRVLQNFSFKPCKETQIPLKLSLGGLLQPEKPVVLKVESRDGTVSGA

B16-F10 syngeneic model = test: Subcutaneous B16-F10 syngeneic model, tumor growth; assay type: in vivo, C57BL/6 mice
Experimental: In order to evaluate the in vivo efficacy of SIS3 and novel compounds of the present invention, a study has been conducted in treatment of the subcutaneous B16-F10 syngeneic models.
• Animal species and strain: C57BL/6 mice • History of treatment: Naive • Sex, age and weight: Female, 6-8 weeks • Breeder/supplier: Shanghai SLAC Laboratory Animal Co. Ltd • Adaptation: At least 7 days • Room: SPF Room • Room temperature: 20-26° C. • Room relative humidity: 40-70% • Light cycle: Fluorescent light for 12-hour light (08:00-20:00) and 12-hour dark • Animal hosting: 2-5 mice/cage each group • Food: Free access to food • Water: Free access to water (municipal tap water filtered by reverse osmosis or high-pressure sterilizer)
B16-F10 cell was maintained at 37° C. under 5% CO2 in DMEM medium supplemented with 10% FBS and were subsequently cultured within 10 passages before inoculated into the mice.
B16-F10 cells (3×10^5 in 100 μL of serum-free medium) were inoculated to each of C57BL/6 mice via s.c. under anesthesia by 3-4% isoflurane. Each group contains 15 mice.
When average tumor volume reached 35-60 mm^3, 15 mice were randomized into group 6. The day of inoculation was denoted as day 0.
Tumor dimensions were measured on Day 4, 5, 6, 8, 11, 13, 15 and 18, after inoculation in 2 dimensions with calipers.
When required, tumor volume was measured daily. The tumor volume (V) was calculated as follows: V=(length×width^2)/2.
The individual relative tumor volume (RTV) was calculated as follows: RTV=Vt/V0, where Vt was the volume on each day, and V0 was the volume at the beginning of the treatment.
Tumor growth inhibition (TGI), TGI=(1−(Ti−T0)/(Ci−C0))×100%; Ti and Ci as the mean tumor volumes of the treatment and control groups on the measurement day; T0 and C0 as the mean tumor volumes of the treatment and control groups on day 0
Results were expressed as mean±S.E.M. Comparisons between two groups were made by Dunnett's multi-comparison test, p<0.05 were considered as significant.

In the case of `COc1cc2c(cc1OC)CN(C(=O)/C=C/c1c(-c3ccccc3)nc3ccccn13)CC2` [Compound 8, (E)-1-(6,7-dimethoxy-3,4-dihydroisoquinolin-2(1H)-yl)-3-(2-phenylimidazo[1,2-a]pyridin-3-yl)prop-2-en-1-one], the solubility at 24 h ([1]; aqueous buffer pH 4.03, aqueous buffer, pH 4.03 buffer) is reported as 598 µg/mL, the solubility at 24 h ([1]; aqueous buffer pH 7.70, pH 7.7, aqueous buffer, pH 7.70 buffer) is reported as 269 µg/mL and the “aqueous solubility relative to the solubility of SIS3” value ([1]; pH of 4.0) is reported as 35 times. For the same molecule, the solubility at 24 h ([1]; unbuffered water) was 321 µg/mL, the inhibition at 10 µM (CYP3A4; probe midazolam) was 41.3% and the inhibition at 10 µM (CYP3A4; probe testosterone) was 2.22%. The “Tumor Sizes (mm3) Mean” value (B16-F10 syngeneic model; 10 mg/kg q.d. * 3W i.p., Day 4 (estimated value)) was 0.62 mm3, the “Relative tumor volume Mean” value (B16-F10 syngeneic model; 10 mg/kg q.d. * 3W i.p., Day 4, RTV=Vt/V0) was 0.04 and the “Tumor Sizes (mm3) Mean” value (B16-F10 syngeneic model; 10 mg/kg q.d. * 3W i.p., Day 5 (estimated value)) was 0.75 mm3. The “Relative tumor volume Mean” value (B16-F10 syngeneic model; 10 mg/kg q.d. * 3W i.p., Day 5, RTV=Vt/V0) was 0.04, the “Tumor Sizes (mm3) Mean” value (B16-F10 syngeneic model; 10 mg/kg q.d. * 3W i.p., Day 6 (estimated value)) was 4.31 mm3 and the “Relative tumor volume Mean” value (B16-F10 syngeneic model; 10 mg/kg q.d. * 3W i.p., Day 6, RTV=Vt/V0) was 0.19. For the same molecule, the “Tumor Sizes (mm3) Mean” value (B16-F10 syngeneic model; 10 mg/kg q.d. * 3W i.p., Day 8) was 38.42 mm3, the “Relative tumor volume Mean” value (B16-F10 syngeneic model; 10 mg/kg q.d. * 3W i.p., Day 8, RTV=Vt/V0) was 1.00 and the “Tumor Sizes (mm3) Mean” value (B16-F10 syngeneic model; 10 mg/kg q.d. * 3W i.p., Day 11) was 151.84 mm3. For the same molecule, the “Relative tumor volume Mean” value (B16-F10 syngeneic model; 10 mg/kg q.d. * 3W i.p., Day 11, RTV=Vt/V0) was 4.80, the “Tumor growth inhibition (%) TGI” value (B16-F10 syngeneic model; 10 mg/kg q.d. * 3W i.p., Day 11, calculated based on tumor volume of Day 8) was 29% and the “Tumor Sizes (mm3) Mean” value (B16-F10 syngeneic model; 10 mg/kg q.d. * 3W i.p., Day 13) was 416.04 mm3. For the same molecule, the “Relative tumor volume Mean” value (B16-F10 syngeneic model; 10 mg/kg q.d. * 3W i.p., Day 13, RTV=Vt/V0) was 12.93, the “Tumor growth inhibition (%) TGI” value (B16-F10 syngeneic model; 10 mg/kg q.d. * 3W i.p., Day 13, calculated based on tumor volume of Day 8) was 30% and the “Tumor Sizes (mm3) Mean” value (B16-F10 syngeneic model; 10 mg/kg q.d. * 3W i.p., Day 15) was 816.24 mm3. The “Relative tumor volume Mean” value (B16-F10 syngeneic model; 10 mg/kg q.d. * 3W i.p., Day 15, RTV=Vt/V0) was 26.76, the “Tumor growth inhibition (%) TGI” value (B16-F10 syngeneic model; 10 mg/kg q.d. * 3W i.p., Day 15, calculated based on tumor volume of Day 8) was 23% and the “Tumor Sizes (mm3) Mean” value (B16-F10 syngeneic model; 10 mg/kg q.d. * 3W i.p., Day 18) was 2500.45 mm3. The “Relative tumor volume Mean” value (B16-F10 syngeneic model; 10 mg/kg q.d. * 3W i.p., Day 18, RTV=Vt/V0) was 93.48, the “Tumor growth inhibition (%) TGI” value (B16-F10 syngeneic model; 10 mg/kg q.d. * 3W i.p., Day 18, calculated based on tumor volume of Day 8) was 11% and the “Tumor Sizes (mm3) Mean” value (B16-F10 syngeneic model; 30 mg/kg q.d. * 3W i.p., Day 4 (estimated value)) was 0.36 mm3. The “Relative tumor volume Mean” value (B16-F10 syngeneic model; 30 mg/kg q.d. * 3W i.p., Day 4, RTV=Vt/V0) was 0.01, the “Tumor Sizes (mm3) Mean” value (B16-F10 syngeneic model; 30 mg/kg q.d. * 3W i.p., Day 5 (estimated value)) was 0.56 mm3 and the “Relative tumor volume Mean” value (B16-F10 syngeneic model; 30 mg/kg q.d. * 3W i.p., Day 5, RTV=Vt/V0) was 0.01. The “Tumor Sizes (mm3) Mean” value (B16-F10 syngeneic model; 30 mg/kg q.d. * 3W i.p., Day 6 (estimated value)) was 5.33 mm3, the “Relative tumor volume Mean” value (B16-F10 syngeneic model; 30 mg/kg q.d. * 3W i.p., Day 6, RTV=Vt/V0) was 0.16 and the “Tumor Sizes (mm3) Mean” value (B16-F10 syngeneic model; 30 mg/kg q.d. * 3W i.p., Day 8) was 47.99 mm3.
